According to patent US20240059671A1, “TYROSINE KINASE 2 (TYK2) DEGRADATION COMPOUNDS AND METHODS OF USE” (CULLGEN (SHANGHAI), INC., priority 2020, published 2024):
Entries after “also recorded” stand apart in the source; their conditions may differ.

Assays:
Format in all cases: cell-based
JAK1, JAK2, and JAK3 = test: Immunoblot of JAK1/2/3 protein levels in MOLT-4 cells (selectivity of TYK2 reduction); settings: MOLT-4 cells, 0.04, 0.2, 1, and 5 μM, 24 hours
Procedure: MOLT-4 cells were treated with CPD-038, CPD-039, and CPD-040 at 0.04, 0.2, 1, and 5 μM concentrations for 24 hours.
(§1) Rabbit anti-JAK1antibody (3344S), anti-JAK2 antibody (3230S), anti-JAK3 antibody (8827S), anti-TYK2 antibody (14193S), anti-STAT1 antibody (9167S), anti-STAT3 antibody (9139S), anti-phospho-STAT1 (Tyr701) antibody ([…]), anti-phospho-STAT3 (Tyr705) antibody (9145S), were purchased from Cell Signaling Technology; anti-β-actin antibody (ab8226) was from Abeam; HRP-conjugated anti-α-Tubulin (GNI4310-AT) antibody was purchased from GNI. Media and other cell culture reagents were purchased from Thermo Fisher.
(§2) Cultured cells were washed with cold PBS once and lysed in cold RIPA buffer supplemented with protease inhibitors and phosphatase inhibitors (Beyotime Biotechnology). The solutions were then incubated at 4° C. for 30 minutes with gentle agitation to fully lyse cells. Cell lysates were centrifuged at 13,000 rpm for 10 minutes at 4° C. and pellets were discarded. Total protein concentrations in the lysates were determined by BCA assays (Beyotime Biotechnology). Cell lysates were mixed with Laemmli loading buffer to 1× and heated at 99° C. for 5 min. Proteins were resolved on SDS-PAGE and visualized by chemiluminescence. Images were taken by a ChemiDoc MP Imaging system (Bio-Rad). Protein bands were quantitated using the accompanied software provided by Bio-Rad.

TYK2 [1] = target: T1, TYK2 (Homo sapiens, UniProt P29597); test: TYK2 protein degradation in MOLT-4 cells by immunoblotting; parameters: endogenous in cells; host or cells: MOLT-4; settings: 24 hours; for TYK2 Degradation (0.5 μM) / TYK2 Degradation (5 μM): MOLT-4 cells; for Reduction of TYK2 protein levels over a dose range (FIG. 1): MOLT-4 cells, 0.04, 0.2, 1, and 5 μM
T1 sequence (P29597 whole entry): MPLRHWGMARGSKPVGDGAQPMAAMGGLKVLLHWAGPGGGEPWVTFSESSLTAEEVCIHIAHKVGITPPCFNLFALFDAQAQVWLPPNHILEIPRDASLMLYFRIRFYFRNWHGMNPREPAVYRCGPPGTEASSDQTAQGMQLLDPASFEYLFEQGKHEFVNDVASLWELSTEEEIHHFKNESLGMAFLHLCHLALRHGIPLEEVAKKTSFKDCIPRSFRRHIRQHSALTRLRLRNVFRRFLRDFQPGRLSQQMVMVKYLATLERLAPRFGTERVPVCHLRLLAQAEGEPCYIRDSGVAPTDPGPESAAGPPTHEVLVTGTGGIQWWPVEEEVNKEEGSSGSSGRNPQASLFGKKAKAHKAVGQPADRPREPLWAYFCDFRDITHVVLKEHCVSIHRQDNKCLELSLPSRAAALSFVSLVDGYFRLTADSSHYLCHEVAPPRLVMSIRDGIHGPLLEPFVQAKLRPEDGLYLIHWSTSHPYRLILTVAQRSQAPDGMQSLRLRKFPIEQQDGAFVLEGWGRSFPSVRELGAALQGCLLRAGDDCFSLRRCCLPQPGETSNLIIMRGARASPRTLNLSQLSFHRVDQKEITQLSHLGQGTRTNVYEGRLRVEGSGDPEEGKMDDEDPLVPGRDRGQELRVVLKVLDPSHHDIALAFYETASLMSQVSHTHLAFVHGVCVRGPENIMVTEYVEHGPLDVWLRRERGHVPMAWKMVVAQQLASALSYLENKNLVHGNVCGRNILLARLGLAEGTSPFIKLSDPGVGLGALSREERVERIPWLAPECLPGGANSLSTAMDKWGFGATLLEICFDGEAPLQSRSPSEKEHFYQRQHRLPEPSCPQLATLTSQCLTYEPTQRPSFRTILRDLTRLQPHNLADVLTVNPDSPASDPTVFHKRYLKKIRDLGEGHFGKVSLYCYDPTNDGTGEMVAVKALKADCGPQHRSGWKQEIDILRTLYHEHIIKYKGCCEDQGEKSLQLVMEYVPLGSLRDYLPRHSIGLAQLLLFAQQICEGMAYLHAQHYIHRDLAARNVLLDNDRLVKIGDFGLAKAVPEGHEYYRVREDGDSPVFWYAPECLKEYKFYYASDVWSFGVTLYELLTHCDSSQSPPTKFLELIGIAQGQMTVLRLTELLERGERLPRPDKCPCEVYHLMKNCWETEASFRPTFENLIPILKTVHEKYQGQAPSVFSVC
Summary of the method: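 Percent TYK2 degradation came from densitometry of chemiluminescent immunoblots of RIPA lysates. Before lysis, MOLT-4 cells had been treated for 24 h with each compound at 0.5 or 5 μM.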

[2] = system: phosphorylation of STAT1 (Tyr701) and STAT3 (Tyr705); test: IFNα-induced STAT1/3 phosphorylation in Jurkat cells by immunoblotting; settings: 3 or 30 nM, 16 hours, then IFNα (2000 IU) for 15 min
Procedure: (§3) Jurkat cells were treated with DMSO or a dose range of heterobifunctional compounds CPD-155, CPD-158, and CPD-164 at 3 or 30 nM concentrations for 16 hours. Cells were subsequently treated with IFNα (2000 IU) for 15 min as indicated.
as §1, §2

TYK2 [3] = target: T1, TYK2; test: TYK2 protein degradation in NOMO-1 cells by immunoblotting; parameters: endogenous in cells; settings: for TYK2 Degradation (NOMO-1, 10 nM) / TYK2 Degradation (NOMO-1, 100 nM): NOMO-1 cells; for Reduction of TYK2 protein levels over a dose range (FIG. 2): NOMO-1 cells, 0.1, 1, 10, 100 and 1000 nM, 16 hours
Summary of the method: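 Read-out was densitometry of chemiluminescent TYK2 immunoblot bands from RIPA lysates after SDS-PAGE. Before lysis, NOMO-1 cells cultured in RPMI 1640 plus 10% FBS were treated for 16 h at 0.1, 1, 10, 100 and 1000 nM.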

TYK2 [4] = target: T1, TYK2; test: TYK2 protein levels in Jurkat cells by immunoblotting; parameters: endogenous in cells; settings: 3 or 30 nM, 16 hours
Procedure: as §3, §2

CNC(=O)c1nnc(NC(=O)CNC(=O)CCCCCCCCC(=O)N[C@H](C(=O)N2C[C@H](O)C[C@H]2C(=O)NCc2ccc(-c3scnc3C)cc2)C(C)(C)C)cc1Nc1cccc(-c2ncn(C)n2)c1OC [CPD-040, N1-((S)-1-((2S,4R)-4-hydroxy-2-((4-(4-methylthiazol-5-yl)benzyl)carbamoyl)pyrrolidin-1-yl)-3,3-dimethyl-1-oxobutan-2-yl)-N10-(2-((5-((2-methoxy-3-(1-methyl-1H-1,2,4-triazol-3-yl)phenyl)amino)-6-(methylcarbamoyl)pyridazin-3-yl)amino)-2-oxoethyl)decanediamide]
Selectivity of TYK2 protein reduction over JAK1, JAK2, and JAK3 (FIG. 1) (JAK1, JAK2, and JAK3): very selective at the reduction protein levels of TYK2 over JAK1, JAK2, and JAK3; also recorded: highly selective at the degradation of TYK2 over JAKT/2/3 proteins
TYK2 Degradation (0.5 μM) (TYK2 [1]): 60%
TYK2 Degradation (5 μM) (TYK2 [1]): 60%
Reduction of TYK2 protein levels over a dose range (FIG. 1) (TYK2 [1]): concentration-dependently reduced the TYK2 proteins levels; also recorded: reduce TYK2 protein levels in a concentration-dependent manner

CNC(=O)c1nnc(NC(=O)CNC(=O)CCCCCCC(=O)N[C@H](C(=O)N2C[C@H](O)C[C@H]2C(=O)NCc2ccc(-c3scnc3C)cc2)C(C)(C)C)cc1Nc1cccc(-c2ncn(C)n2)c1OC [CPD-038, N1-((S)-1-((2S,4R)-4-hydroxy-2-((4-(4-methylthiazol-5-yl)benzyl)carbamoyl)pyrrolidin-1-yl)-3,3-dimethyl-1-oxobutan-2-yl)-N8-(2-((5-((2-methoxy-3-(1-methyl-1H-1,2,4-triazol-3-yl)phenyl)amino)-6-(methylcarbamoyl)pyridazin-3-yl)amino)-2-oxoethyl)octanediamide]
Selectivity of TYK2 protein reduction over JAK1, JAK2, and JAK3 (FIG. 1) (JAK1, JAK2, and JAK3): very selective at the reduction protein levels of TYK2 over JAK1, JAK2, and JAK3; also recorded: highly selective at the degradation of TYK2 over JAKT/2/3 proteins
TYK2 Degradation (0.5 μM) (TYK2 [1]): 50%
TYK2 Degradation (5 μM) (TYK2 [1]): 90%
Reduction of TYK2 protein levels over a dose range (FIG. 1) (TYK2 [1]): concentration-dependently reduced the TYK2 proteins levels; also recorded: reduce TYK2 protein levels in a concentration-dependent manner

CNC(=O)c1nnc(Nc2ccc(C(=O)NCCCCCCCCNc3cccc4c3C(=O)N(C3CCC(=O)NC3=O)C4=O)cn2)cc1Nc1cccc(-c2ncn(C)n2)c1OC (stereo not drawn) [CPD-158, 6-((5-((8-((2-(2,6-dioxopiperidin-3-yl)-1,3-dioxoisoindolin-4-yl)amino)octyl)carbamoyl)pyridin-2-yl)amino)-4-((2-methoxy-3-(1-methyl-1H-1,2,4-triazol-3-yl)phenyl)amino)-N-methylpyridazine-3-carboxamide]
Phosphorylation of STAT1 (Tyr701) and STAT3 (Tyr705) induced by IFNα (FIG. 3) [2]: concentration-dependently reduced phosphorylation of STAT1 (Tyr701) and STAT3 (Tyr705) induced by IFNα treatment; also recorded: significantly decreased STAT1/3 phosphorylation downstream of IFNα stimulation
TYK2 Degradation (NOMO-1, 10 nM) (TYK2 [3]): A (A: ≥60% TYK2 degradation)
TYK2 Degradation (NOMO-1, 100 nM) (TYK2 [3]): B (B: <60% TYK2 degradation, and >20% TYK2 degradation)
Reduction of TYK2 protein levels over a dose range (FIG. 2) (TYK2 [3]): concentration-dependently reduced the TYK2 proteins levels; also recorded: highly potent in reducing TYK2 protein levels
TYK2 protein levels in Jurkat cells (FIG. 3) (TYK2 [4]): reduced levels of TYK2 proteins

CNC(=O)c1nnc(NC(=O)CNC(=O)CCCCCCCC(=O)N[C@H](C(=O)N2C[C@H](O)C[C@H]2C(=O)NCc2ccc(-c3scnc3C)cc2)C(C)(C)C)cc1Nc1cccc(-c2ncn(C)n2)c1OC [CPD-039, N1-((S)-1-((2S,4R)-4-hydroxy-2-((4-(4-methylthiazol-5-yl)benzyl)carbamoyl)pyrrolidin-1-yl)-3,3-dimethyl-1-oxobutan-2-yl)-N9-(2-((5-((2-methoxy-3-(1-methyl-1H-1,2,4-triazol-3-yl)phenyl)amino)-6-(methylcarbamoyl)pyridazin-3-yl)amino)-2-oxoethyl)nonanediamide]
Selectivity of TYK2 protein reduction over JAK1, JAK2, and JAK3 (FIG. 1) (JAK1, JAK2, and JAK3): very selective at the reduction protein levels of TYK2 over JAK1, JAK2, and JAK3; also recorded: highly selective at the degradation of TYK2 over JAKT/2/3 proteins
TYK2 Degradation (0.5 μM) (TYK2 [1]): 60%
TYK2 Degradation (5 μM) (TYK2 [1]): 90%
Reduction of TYK2 protein levels over a dose range (FIG. 1) (TYK2 [1]): concentration-dependently reduced the TYK2 proteins levels; also recorded: reduce TYK2 protein levels in a concentration-dependent manner

CNC(=O)c1nnc(Nc2ccc(C(=O)NCCCCCNc3cccc4c3C(=O)N(C3CCC(=O)NC3=O)C4=O)cn2)cc1Nc1cccc(-c2ncn(C)n2)c1OC (stereo not drawn) [CPD-155, 6-((5-((5-((2-(2,6-dioxopiperidin-3-yl)-1,3-dioxoisoindolin-4-yl)amino)pentyl)carbamoyl)pyridin-2-yl)amino)-4-((2-methoxy-3-(1-methyl-1H-1,2,4-triazol-3-yl)phenyl)amino)-N-methylpyridazine-3-carboxamide]
Phosphorylation of STAT1 (Tyr701) and STAT3 (Tyr705) induced by IFNα (FIG. 3) [2]: concentration-dependently reduced phosphorylation of STAT1 (Tyr701) and STAT3 (Tyr705) induced by IFNα treatment; also recorded: significantly decreased STAT1/3 phosphorylation downstream of IFNα stimulation
TYK2 Degradation (NOMO-1, 10 nM) (TYK2 [3]): A (A: ≥60% TYK2 degradation)
TYK2 Degradation (NOMO-1, 100 nM) (TYK2 [3]): A (A: ≥60% TYK2 degradation)
Reduction of TYK2 protein levels over a dose range (FIG. 2) (TYK2 [3]): concentration-dependently reduced the TYK2 proteins levels; also recorded: highly potent in reducing TYK2 protein levels
TYK2 protein levels in Jurkat cells (FIG. 3) (TYK2 [4]): reduced levels of TYK2 proteins

CNC(=O)c1nnc(Nc2ccc(C(=O)NCCCCCC(=O)N[C@H](C(=O)N3C[C@H](O)C[C@H]3C(=O)N[C@@H](C)c3ccc(-c4scnc4C)cc3)C(C)(C)C)cn2)cc1Nc1cccc(-c2ncn(C)n2)c1OC [CPD-141, 6-((5-((6-(((S)-1-((2S,4R)-4-Hydroxy-2-(((S)-1-(4-(4-methylthiazol-5-yl)phenyl)ethyl)carbamoyl)pyrrolidin-1-yl)-3,3-dimethyl-1-oxobutan-2-yl)amino)-6-oxohexyl)carbamoyl)pyridin-2-yl)amino)-4-((2-methoxy-3-(1-methyl-1H-1,2,4-triazol-3-yl)phenyl)amino)-N-methylpyridazine-3-carboxamide]
TYK2 Degradation (NOMO-1, 10 nM) (TYK2 [3]): B (B: <60% TYK2 degradation, and >20% TYK2 degradation)
TYK2 Degradation (NOMO-1, 100 nM) (TYK2 [3]): A (A: ≥60% TYK2 degradation)

CNC(=O)c1nnc(Nc2ccc(C(=O)NCCCCCNc3ccc4c(c3)C(=O)N(C3CCC(=O)NC3=O)C4=O)cn2)cc1Nc1cccc(-c2ncn(C)n2)c1OC (stereo not drawn) [CPD-164, 6-((5-((5-((2-(2,6-dioxopiperidin-3-yl)-1,3-dioxoisoindolin-5-yl)amino)pentyl)carbamoyl)pyridin-2-yl)amino)-4-((2-methoxy-3-(1-methyl-1H-1,2,4-triazol-3-yl)phenyl)amino)-N-methylpyridazine-3-carboxamide]
Phosphorylation of STAT1 (Tyr701) and STAT3 (Tyr705) induced by IFNα (FIG. 3) [2]: concentration-dependently reduced phosphorylation of STAT1 (Tyr701) and STAT3 (Tyr705) induced by IFNα treatment; also recorded: significantly decreased STAT1/3 phosphorylation downstream of IFNα stimulation
TYK2 Degradation (NOMO-1, 10 nM) (TYK2 [3]): A (A: ≥60% TYK2 degradation)
TYK2 Degradation (NOMO-1, 100 nM) (TYK2 [3]): B (B: <60% TYK2 degradation, and >20% TYK2 degradation)
TYK2 protein levels in Jurkat cells (FIG. 3) (TYK2 [4]): reduced levels of TYK2 proteins

CNC(=O)c1cnc(Nc2ccc(N3CCN(C(=O)CCCCCCC(=O)N[C@H](C(=O)N4C[C@H](O)C[C@H]4C(=O)N[C@@H](C)c4ccc(-c5scnc5C)cc4)C(C)(C)C)CC3)cn2)cc1Nc1ccccc1OC [CDD-170, 6-((5-(4-(8-(((S)-1-((2S,4R)-4-hydroxy-2-(((S)-1-(4-(4-methylthiazol-5-yl)phenyl)ethyl)carbamoyl)pyrrolidin-1-yl)-3,3-dimethyl-1-oxobutan-2-yl)amino)-8-oxooctanoyl)piperazin-1-yl)pyridin-2-yl)amino)-4-((2-methoxyphenyl)amino)-N-methylnicotinamide]
TYK2 Degradation (NOMO-1, 10 nM) (TYK2 [3]): B (B: <60% TYK2 degradation, and >20% TYK2 degradation)
TYK2 Degradation (NOMO-1, 100 nM) (TYK2 [3]): A (A: ≥60% TYK2 degradation)
